Assay results: the supplement of paper PMC10307832

Columns and labels:
Assay in all cases: relative viability (nuclei count vs DMSO), 5 days (fraction); higher = more cells survive
Bosutinib + Phenformin = compound: COc1cc(Nc2c(C#N)cnc3cc(OCCCN4CCN(C)CC4)c(OC)cc23)c(Cl)cc1Cl [Bosutinib] + N=C(N)NC(=N)NCCc1ccccc1 [Phenformin] (partner 250 µM)
Outline: (§1)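 Lung cancer cell lines were pin-tool dosed in 1536-well plates on the day after seeding, with either a lone drug or a fixed anchor-drug dose plus five library-drug doses (not always all listed) in √10 steps. Nuclei were counted on 4× images after 5 days. Relative viability is the ratio of treated-well to vehicle-well nuclei counts, with each value a median of duplicate plates.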

Bosutinib + Lapatinib = compound: COc1cc(Nc2c(C#N)cnc3cc(OCCCN4CCN(C)CC4)c(OC)cc23)c(Cl)cc1Cl [Bosutinib] + CS(=O)(=O)CCNCc1ccc(-c2ccc3ncnc(Nc4ccc(OCc5cccc(F)c5)c(Cl)c4)c3c2)o1 [Lapatinib] (partner 2 µM)
Outline: as §1

Bosutinib + Pictilisib = compound: COc1cc(Nc2c(C#N)cnc3cc(OCCCN4CCN(C)CC4)c(OC)cc23)c(Cl)cc1Cl [Bosutinib] + CS(=O)(=O)N1CCN(Cc2cc3nc(-c4cccc5[nH]ncc45)nc(N4CCOCC4)c3s2)CC1 [Pictilisib] (partner 1 µM)
Outline: as §1

Bosutinib + Dasatinib = compound: COc1cc(Nc2c(C#N)cnc3cc(OCCCN4CCN(C)CC4)c(OC)cc23)c(Cl)cc1Cl [Bosutinib] + Cc1nc(Nc2ncc(C(=O)Nc3c(C)cccc3Cl)s2)cc(N2CCN(CCO)CC2)n1 [Dasatinib] (partner 0.075 µM)
Outline: as §1

Bosutinib + Alpelisib = compound: COc1cc(Nc2c(C#N)cnc3cc(OCCCN4CCN(C)CC4)c(OC)cc23)c(Cl)cc1Cl [Bosutinib] + Cc1nc(NC(=O)N2CCC[C@H]2C(N)=O)sc1-c1ccnc(C(C)(C)C(F)(F)F)c1 [Alpelisib] (partner 2 µM)
Outline: as §1

| Cell Line | relative viability (Bosutinib + Phenformin; first compound 0.01 µM) | relative viability (Bosutinib + Phenformin; first compound 0.03162 µM) | relative viability (Bosutinib + Phenformin; first compound 0.1 µM) | relative viability (Bosutinib + Phenformin; first compound 1 µM) | relative viability (Bosutinib + Lapatinib; first compound 0.01 µM) | relative viability (Bosutinib + Lapatinib; first compound 0.03162 µM) | relative viability (Bosutinib + Lapatinib; first compound 0.1 µM) | relative viability (Bosutinib + Lapatinib; first compound 1 µM) | relative viability (Bosutinib + Pictilisib; first compound 0.01 µM) | relative viability (Bosutinib + Pictilisib; first compound 0.03162 µM) | relative viability (Bosutinib + Pictilisib; first compound 0.1 µM) | relative viability (Bosutinib + Pictilisib; first compound 1 µM) | relative viability (Bosutinib + Dasatinib; first compound 0.01 µM) | relative viability (Bosutinib + Dasatinib; first compound 0.03162 µM) | relative viability (Bosutinib + Dasatinib; first compound 0.1 µM) | relative viability (Bosutinib + Dasatinib; first compound 1 µM) | relative viability (Bosutinib + Alpelisib; first compound 0.01 µM) | relative viability (Bosutinib + Alpelisib; first compound 0.03162 µM) | relative viability (Bosutinib + Alpelisib; first compound 0.1 µM) | relative viability (Bosutinib + Alpelisib; first compound 1 µM) |
| --- | --- | --- | --- | --- | --- | --- | --- | --- | --- | --- | --- | --- | --- | --- | --- | --- | --- | --- | --- | --- |
| 201T | 0.444 | 0.421 | 0.449 | 0.425 | 1.03 | 1.05 | 1.01 | 0.96 | 0.685 | 0.653 | 0.66 | 0.615 | 0.612 | 0.571 | 0.57 | 0.544 | 1 | 1.02 | 1.01 | 0.909 |
| A549 | 0.197 | 0.169 | 0.149 | 0.124 | 0.949 | 1.05 | 1.06 | 1.03 | 0.442 | 0.447 | 0.494 | 0.513 |  |  |  |  | 0.731 | 0.78 | 0.734 | 0.621 |
| A-427 | 0.46 | 0.369 | 0.331 | 0.26 | 1.02 | 0.972 | 1 | 1.03 | 0.724 | 0.801 | 0.874 | 0.736 | 0.767 | 0.843 | 0.665 | 0.732 | 1.03 | 1.11 | 1.03 | 0.978 |
| ABC-1 | 0.186 | 0.196 | 0.224 | 0.26 | 1.26 | 1.2 | 1.05 | 0.786 | 0.836 | 0.85 | 0.841 | 0.596 | 0.548 | 0.605 | 0.65 | 0.488 | 0.938 | 0.944 | 0.897 | 0.731 |
| BEN | 0.254 | 0.257 | 0.253 | 0.25 | 0.619 | 0.699 | 0.785 | 0.52 | 0.548 | 0.706 | 0.664 | 0.429 | 0.315 | 0.339 | 0.344 | 0.368 | 0.986 | 1.04 | 0.888 | 0.669 |
| CAL-12T | 0.567 | 0.584 | 0.52 | 0.382 | 0.755 | 0.706 | 0.82 | 0.551 | 0.31 | 0.496 | 0.46 | 0.409 | 0.383 | 0.426 | 0.417 | 0.467 | 1.09 | 1.09 | 1.2 | 0.787 |
| COR-L23 | 0.432 | 0.451 | 0.449 | 0.496 | 1.01 | 0.892 | 1.04 | 1.08 | 0.893 | 0.826 | 0.813 | 0.81 | 0.551 | 0.537 | 0.501 | 0.619 | 0.803 | 0.799 | 0.747 | 0.836 |
| COR-L 105 | 0.55 | 0.522 | 0.519 | 0.357 | 0.384 | 0.403 | 0.391 | 0.3 | 0.423 | 0.442 | 0.387 | 0.393 | 0.383 | 0.363 | 0.397 | 0.353 | 0.869 | 1.27 | 0.871 | 0.565 |
